PMC8998978, “Toward a Treatment of Cancer: Design and In Vitro/In Vivo Evaluation of Uncharged Pyrazoline Derivatives as a Series of Novel SHP2 Inhibitors” (International Journal of Molecular Sciences, 2022)

How the values were obtained:
HUVEC cells = test: Cell viability assay (SRB), normal cells; assay type: cell-based; conditions: Homo sapiens, 72 h
Description: (§1) Human colon cancer cell line HCT116, hepatoma cell lines HepG2 and BEL-7402, lung adenocarcinoma cell lines NCI-H1975 and 95-D, pancreatic cancer cell line Panc-1, breast cancer cell line MDA-MB-231, NSCLC cell line NCI-H1299, ovarian cancer cell line SK-OV-3, leukemia cell line K562, glioma cell line U87, colon epithelial cell line NCM460 and umbilical vein endothelial cell line HUVEC were purchased from the Institute of Biochemistry and Cell Biology, Chinese Academy of Sciences (Shanghai, China). HCT116 cell line was cultured in McCoy’s 5A medium (Hyclone, Logan, UT, USA). HepG2, 95-D, Panc-1, MDA-MB-231, BEL-7402, SK-OV-3, U87 and NCM460 cell lines were cultured in DMEM-High glucose medium (Hyclone, Logan, UT, USA). NCI-H1975, NCI-H1299 and HUVEC cell lines were cultured in RPMI 1640 medium (Hyclone, Logan, UT, USA). K562 cell line was cultured in IMDM medium (Hyclone, Logan, UT, USA). […]
(§2) The inhibition rate of cell viability was detected by 3-(4,5-dimethyl-2-thiazolyl)-2,5-diphenyl-2-H-tetrazolium bromide (MTT, Solarbio, Beijing, China) or Sulforhodamine B (SRB, Sigma-Aldrich, St. Louis, MO, USA) assay. […] The absorbance at 570 nm was measured in a multimode reader (Berthold Technologies, Germany). […] Finally, Tris–HCl solution was added, and the absorbance at 515 nm was detected in a multimode reader (Berthold Technologies, Germany).

NCM460 cells = test: Cell viability assay (SRB), normal cells; assay type: cell-based; conditions: Homo sapiens, 72 h
Description: as §1, §2

[1] = target: T1, recombinant human SHP2 protein (Homo sapiens, UniProt Q06124); test: Inhibition type of SHP2 (double reciprocal plot, pNPP); assay type: biochemical; conditions: 4o 0, 0.5, 1, 2 µM; various pNPP concentrations
T1 sequence (Q06124 1-593): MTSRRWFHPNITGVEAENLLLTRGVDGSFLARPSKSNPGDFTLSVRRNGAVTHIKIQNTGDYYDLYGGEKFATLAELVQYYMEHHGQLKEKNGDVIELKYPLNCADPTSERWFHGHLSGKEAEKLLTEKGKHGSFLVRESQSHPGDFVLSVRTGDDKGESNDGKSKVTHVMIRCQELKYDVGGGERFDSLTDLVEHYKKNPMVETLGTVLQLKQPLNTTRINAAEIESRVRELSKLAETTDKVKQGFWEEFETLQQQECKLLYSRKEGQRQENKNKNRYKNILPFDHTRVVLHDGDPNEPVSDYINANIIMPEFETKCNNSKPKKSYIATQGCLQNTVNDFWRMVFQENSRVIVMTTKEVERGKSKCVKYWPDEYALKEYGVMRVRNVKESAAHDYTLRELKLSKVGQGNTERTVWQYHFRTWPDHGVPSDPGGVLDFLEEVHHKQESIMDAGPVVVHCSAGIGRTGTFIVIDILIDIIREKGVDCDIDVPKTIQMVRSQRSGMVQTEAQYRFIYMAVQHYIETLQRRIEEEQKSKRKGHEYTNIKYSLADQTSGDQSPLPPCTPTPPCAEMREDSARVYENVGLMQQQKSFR
Protocol: Inhibition kinetic studies were performed with various concentrations of pNPP in the absence or presence of inhibitors. The experimental results were analyzed using double reciprocal plotting to evaluate the type of inhibition.
The experimental process was similar to the SHP2 inhibition assay. In the assay, the initial rates at a series of pNPP concentrations were determined at various fixed inhibitor concentrations of 4o (0 µM, 0.5 µM, 1 µM and 2 µM) as described above. The values of 1/[S] and 1/[V] were obtained from the substrate concentration and initial reaction rate, and were plotted on the x-axis and y-axis, respectively. The inhibition type of SHP2 was determined according to the intersection characteristics of the obtained approximate line.

NCI-H1299 cells = test: Cell viability assay (SRB); assay type: cell-based; conditions: Homo sapiens, NCI-H1299, 72 h
Description: (§3) Human colon cancer cell line HCT116, hepatoma cell lines HepG2 and BEL-7402, lung adenocarcinoma cell lines NCI-H1975 and 95-D, pancreatic cancer cell line Panc-1, breast cancer cell line MDA-MB-231, NSCLC cell line NCI-H1299, ovarian cancer cell line SK-OV-3, leukemia cell line K562, glioma cell line U87, colon epithelial cell line NCM460 and umbilical vein endothelial cell line HUVEC were purchased from the Institute of Biochemistry and Cell Biology, Chinese Academy of Sciences (Shanghai, China). HCT116 cell line was cultured in McCoy’s 5A medium (Hyclone, Logan, UT, USA). HepG2, 95-D, Panc-1, MDA-MB-231, BEL-7402, SK-OV-3, U87 and NCM460 cell lines were cultured in DMEM-High glucose medium (Hyclone, Logan, UT, USA). NCI-H1975, NCI-H1299 and HUVEC cell lines were cultured in RPMI 1640 medium (Hyclone, Logan, UT, USA). K562 cell line was cultured in IMDM medium (Hyclone, Logan, UT, USA). All of them were incubated in the medium with 10% fetal bovine serum (PAN, Adenbach, Bavaria, Germany) and 1% penicillin-streptomycin (Gibco-Invitrogen, Grand Island, NY, USA) under a humidified atmosphere of 5% CO2 at 37 °C.
(§4) The inhibition rate of cell viability was detected by 3-(4,5-dimethyl-2-thiazolyl)-2,5-diphenyl-2-H-tetrazolium bromide (MTT, Solarbio, Beijing, China) or Sulforhodamine B (SRB, Sigma-Aldrich, St. Louis, MO, USA) assay. In MTT assay, the suspension cells were inoculated in 96-well plates at the density of 5000 cells per well, and incubated with 4o at indicated concentrations dissolved in DMSO for 72 h. Each well was incubated with MTT solution (5 mg/mL) at 37 °C for 4 h, DMSO was added and incubated overnight at 37 °C. The absorbance at 570 nm was measured in a multimode reader (Berthold Technologies, Germany). In SRB assay, adherent cells were seeded in 96-well plates (5000 cells per well). After 24 h, the cells were treated with 4o for 72 h, and then fixed with precooling 10% TCA solution at 4 °C for 1 h. After washing and drying, SRB staining was added for 15 min, and then washed and dried by 1% acetic acid. Finally, Tris–HCl solution was added, and the absorbance at 515 nm was detected in a multimode reader (Berthold Technologies, Germany).

SK-OV-3 cells = test: Cell viability assay (SRB); assay type: cell-based; conditions: Homo sapiens, SK-OV-3, 72 h
Description: as §3, §4

BEL-7402 cells = test: Cell viability assay (SRB); assay type: cell-based; conditions: Homo sapiens, BEL-7402, 72 h
Description: as §3, §4

Panc-1 cells = test: Cell viability assay (SRB); assay type: cell-based; conditions: Homo sapiens, Panc-1, 72 h
Description: as §3, §4

HepG2 cells = test: Cell viability assay (SRB); assay type: cell-based; conditions: Homo sapiens, HepG2, 72 h
Description: as §3, §4

U87 cells = test: Cell viability assay (SRB); assay type: cell-based; conditions: Homo sapiens, U-87 MG, U87, 72 h
Description: as §3, §4

NCI-H1975 cells = test: Cell viability assay (SRB); assay type: cell-based; conditions: Homo sapiens, NCI-H1975, 72 h
Description: as §3, §4

95-D cells = test: Cell viability assay (SRB); assay type: cell-based; conditions: Homo sapiens, 72 h
Description: as §3, §4

MDA-MB-231 cells = test: Cell viability assay (SRB); assay type: cell-based; conditions: Homo sapiens, MDA-MB-231, 72 h
Description: as §3, §4

Question: With `CCOc1ccc(Oc2ccc(C3=NN(C4=NC(=O)CS4)C(c4cc(O)c(O)c(Br)c4Br)C3)cc2)cc1` (stereo not drawn) [Compound 4o, 2-(5-(2,3-dibromo-4,5-dihydroxyphenyl)-3-(4-(4-ethoxyphenoxy)phenyl)-4,5-dihydro-1H-pyrazol-1-yl)thiazol-4(5H)-one] as the molecule, how does the IC50 (HUVEC cells) read?
Answer: 28.3 ± 1.63 µM

Question: And the IC50 (NCM460 cells)?
Answer: 27.1 ± 0.66 µM

Question: What about the “Inhibition type of SHP2” value [1] of the same molecule?
Answer: competitive SHP2 inhibitor

Question: What about the IC50 (NCI-H1299 cells) of the same molecule?
Answer: 7.42 ± 0.43 µM

Question: And the IC50 (SK-OV-3 cells)?
Answer: 8.44 ± 0.45 µM

Question: And the IC50 (BEL-7402 cells)?
Answer: 7.38 ± 0.31 µM

Question: And the IC50 (Panc-1 cells)?
Answer: 6.3 ± 0.5 µM

Question: And the IC50 (HepG2 cells)?
Answer: 3.8 ± 0.22 µM

Question: What about the IC50 (U87 cells) of the same molecule?
Answer: 10.2 ± 0.39 µM

Question: And the IC50 (NCI-H1975 cells)?
Answer: 5.29 ± 0.6 µM

Question: What about the IC50 (95-D cells) of the same molecule?
Answer: 5.42 ± 0.44 µM

Question: And the IC50 (MDA-MB-231 cells)?
Answer: 6.34 ± 0.37 µM
